These results are taken from patent US8088812B2, “Sigma receptor inhibitors” (Laboratorios Del Dr. Esteve, S.A., priority 2006, dated 2012).

One series deals with T1, σ1-receptor (Cavia porcellus, UniProt Q60492).
T1 construct: guinea pig brains are homogenized; from tissue; host or cells: guinea pig brain membranes
Description: Sigma-1 receptor binding assay, [3H](+)-pentazocine, brain membranes. The conditions noted are these: guinea pig brain membranes. The procedure: Brain membrane preparation and binding assays for the σ1-receptor are performed as described (DeHaven-Hudkins et al., 1992) with some modifications. In brief, guinea pig brains are homogenized in 10 vols. (w/v) of Tris-HCl 50 mM 0.32 M sucrose, pH 7.4, with a Kinematica Polytron PT 3000 at 15000 r.p.m. for 30 s. The homogenate is centrifuged at 1000 g for 10 min at 4° C. and the supernatants collected and centrifuged again at 48000 g for 15 min at 4° C. The pellet is resuspended in 10 volumes of Tris-HCl buffer (50 mM, pH 7.4), incubated at 37° C. for 30 min, and centrifuged at 48000 g for 20 min at 4° C. Following this, the pellet is resuspended in fresh Tris-HCl buffer (50 mM, pH 7.4) and stored on ice until use.
Each assay tube contains 10 μL of [^3H](+)-pentazocine (final concentration of 0.5 nM), 900 μL of the tissue suspension to a final assay volume of 1 mL and a final tissue concentration of approximately 30 mg tissue net weight/mL. Non-specific binding is defined by addition of a final concentration of 1 μM haloperidol. All tubes are incubated at 37° C. for 150 min before termination of the reaction by rapid filtration over Schleicher & Schuell GF 3362 glass fibre filters [previously soaked in a solution of 0.5% polyethylenimine for at least 1 h]. Filters are then washed four times with 4 mL of cold Tris-HCl buffer (50 mM, pH 7.4). Following addition of scintillation cocktail, the samples are allowed to equilibrate overnight. The amount of bound radioactivity is determined by liquid scintillation spectrometry using a Wallac Winspectral 1414 liquid scintillation counter. Protein concentrations are determined by the method of Lowry et al. (1951).

For series [1], the system named is capsaicin-induced allodynia. Description: Von Frey filaments in a model of capsaicin-induced allodynia. The class given is in vivo. The conditions noted are these: mice, percent analgesia compared to control, mechanical stimulus after capsaicin injection into paw. Here is the method: This model is described in detail in the experimental part of WO 2006/010587 A1, examples 1 and 2, the description being included here by reference. Capsaicin is thereby injected into experimental animals to produce acute pain followed by allodynia.
Briefly after habituation mice were first treated with the test-compound (or not in controls). Then capsaicin (1% DMSO) is injected into their paw resulting in developing pain in the effected paw. The effected paw is then treated with a mechanical stimulus and the latency time before the paw is withdrawn is measured.
The results obtained for examples 5, 6 and 8 are shown in table (II) as percent analgesia compared to control achieved at […] 16 mg/kg i.p.

The term Ki denotes a measure of affinity in units of concentration, obtained from inhibition or displacement. The low end stands for tighter binding, the high end for weaker binding. As a reminder, the melting point is the temperature of the solid-liquid transition.

T1 sequence (Q60492 whole entry): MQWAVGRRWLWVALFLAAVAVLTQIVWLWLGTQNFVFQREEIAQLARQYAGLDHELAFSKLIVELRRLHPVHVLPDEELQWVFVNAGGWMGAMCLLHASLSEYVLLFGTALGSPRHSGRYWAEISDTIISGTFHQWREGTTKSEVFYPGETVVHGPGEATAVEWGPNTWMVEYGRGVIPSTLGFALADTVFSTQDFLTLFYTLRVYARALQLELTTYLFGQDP

Compound `O=C(O)C(=O)O.c1ccc(C2CCN(CCOc3ccn(C4CCCCC4)n3)CC2)cc1` [Example 11, 1-(2-(1-Cyclohexyl-1H-pyrazol-3-yloxy)ethyl)-4-phenylpiperidine oxalate] gave a melting point of 122 to 128 °C. At σ1-receptor, the affinity, expressed as Ki, was 8.6 nM. In turn, `O=C(O)C(=O)O.c1cn(C2CCCCC2)nc1OCCN1CCOCC1` [Example 5, 4-(2-(1-cyclohexyl-1H-pyrazol-3-yloxy)ethyl)morpholine oxalate] returned a melting point of 135 to 140 °C. Moreover, the “Analgesia (16 mg/kg), i.p. %” value in series [1] is 20%. On σ1-receptor, this compound showed a Ki of 4.1 ± 0.1 nM. As to `CC(C)(C)n1ccc(OCCN2CCCC2)n1.O=C(O)C(=O)O` [Example 4, 1-tert-butyl-3-[2-(pyrrolidin-1-yl)ethoxy]-1H-pyrazole oxalate], the melting point lay in the range of 82 to 88 °C. Compound `O=C(O)C(=O)O.c1cn(C2CCCCC2)nc1OCCN1CCCCC1` [Example 6, 1-(2-(1-cyclohexyl-1H-pyrazol-3-yloxy)ethyl)piperidine oxalate] returned a melting point of 105 to 110 °C. Besides, in series [1], the “Analgesia (16 mg/kg), i.p. %” value stood at 70%. On σ1-receptor, this compound registered a Ki of 1 ± 0.3 nM. In turn, `CC(C)(C)n1ccc(OCCN2CCCCC2)n1.O=C(O)C(=O)O` [Example 2, 1-[2-(1-tert-butyl-1H-pyrazol-3-yloxy)ethyl]piperidine oxalate] showed a melting point of 123 to 126 °C.

As for `CCN(CC)CCOc1ccn(C2CCCCC2)n1.O=C(O)C(=O)O` [Example 7, 2-(1-cyclohexyl-1H-pyrazol-3-yloxy)-N,N-diethylethanamine oxalate], the melting point lay in the range of 85 to 90 °C. In turn, `CCN(CC)CCOc1ccn(C(C)(C)C)n1.O=C(O)C(=O)O` came in with a melting point of 96 to 98 °C.

`O=C(O)C(=O)O.c1cn(C2CCCCC2)nc1OCCN1CCCC1` [Example 8, 1-Cyclohexyl-3-(2-(pyrrolidin-1-yl)ethoxy)-1H-pyrazole oxalate] came in with a melting point of 117 to 119 °C. In addition, the “Analgesia (16 mg/kg), i.p. %” value in series [1] stood at 65%. Moreover, the Ki at σ1-receptor was found to be 2.5 nM.
